Experimental data: publication PMC8495142 (Drug Design, Development and Therapy, 2021)

Tests used:
CYP2D6 = conditions: in vitro; cited from earlier work
[1] = format: in vitro ADME, beagle dog; conditions: all four storage conditions, 2.5, 50 and 150 ng/mL
CYP3A = conditions: in vitro; cited from earlier work

Stability in beagle dog plasma (in words) [1]: stable
SMILES: CC[C@@H]1CN(C(=O)NCC(F)(F)F)C[C@@H]1c1cnc2cnc3[nH]ccc3n12 [Upadacitinib]
Metabolism by CYP2D6 (CYP2D6): a small part by CYP2D6 | Metabolism by CYP3A (CYP3A): mainly metabolized by CYP3A
